The text below walks through data of patent publication US5747490A, “Alpha 1b adrenergic receptor antagonists” (Merck & Co., Inc., priority 1996, dated 1998).

Assay [1] deals with T1, human alpha 2a adrenergic receptor (Homo sapiens, UniProt P08913).
T1 construct: expressed in transfected cells; host or cells: cloned human receptor
T1 sequence (P08913 1-465): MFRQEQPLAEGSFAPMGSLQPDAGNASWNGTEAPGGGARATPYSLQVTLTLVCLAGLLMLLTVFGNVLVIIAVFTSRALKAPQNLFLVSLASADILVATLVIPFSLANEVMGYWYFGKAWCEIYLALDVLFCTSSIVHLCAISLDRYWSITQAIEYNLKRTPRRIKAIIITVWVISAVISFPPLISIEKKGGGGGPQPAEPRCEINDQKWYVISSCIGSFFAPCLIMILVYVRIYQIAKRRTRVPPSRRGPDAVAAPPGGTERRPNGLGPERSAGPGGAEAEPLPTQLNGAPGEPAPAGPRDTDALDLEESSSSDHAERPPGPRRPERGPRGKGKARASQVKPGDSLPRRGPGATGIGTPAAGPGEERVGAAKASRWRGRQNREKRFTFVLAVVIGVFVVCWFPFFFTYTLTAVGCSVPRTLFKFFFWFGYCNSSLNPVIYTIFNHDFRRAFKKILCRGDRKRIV
In words: Receptor binding, cloned human alpha 2a. The conditions noted are these: for Ki: Table 1, cloned human receptors, read-out: alpha adrenergic receptor subtype binding, 2a. From the text:
(§1) This is accomplished according to methods known in the art using other receptors responsible for mediating diverse biological functions. [See e.g., PCT International Application Publication No. WO94/10989, published 26 May 1994; U.S. Pat. No. 5,403,847, issued Apr. 4, 1995, the contents of which are hereby incorporated by reference]. Compounds which are both selective amongst the various human alpha 1 adrenergic receptor subtypes and which have low affinity for other receptors, such as the alpha 2 adrenergic receptors, the β-adrenergic receptors, the muscarinic receptors, the serotonin receptors, and others are particularly preferred. The absence of these non-specific activities may be confirmed by using cloned and expressed receptors in an analogous fashion to the method disclosed herein for identifying compounds which have high affinity for the various human alpha 1 adrenergic receptors. Furthermore, functional biological tests are used to confirm the effects of identified compounds as alpha 1b adrenergic receptor antagonists.
(§2) Receptor binding data for representative compounds of the present invention in cloned human receptors is shown below in Table 1.

Assay [2] has as its target T2, human alpha 2b adrenergic receptor (Homo sapiens, UniProt P18089).
T2 construct: expressed in transfected cells; host or cells: cloned human receptor
T2 sequence (P18089 1-450): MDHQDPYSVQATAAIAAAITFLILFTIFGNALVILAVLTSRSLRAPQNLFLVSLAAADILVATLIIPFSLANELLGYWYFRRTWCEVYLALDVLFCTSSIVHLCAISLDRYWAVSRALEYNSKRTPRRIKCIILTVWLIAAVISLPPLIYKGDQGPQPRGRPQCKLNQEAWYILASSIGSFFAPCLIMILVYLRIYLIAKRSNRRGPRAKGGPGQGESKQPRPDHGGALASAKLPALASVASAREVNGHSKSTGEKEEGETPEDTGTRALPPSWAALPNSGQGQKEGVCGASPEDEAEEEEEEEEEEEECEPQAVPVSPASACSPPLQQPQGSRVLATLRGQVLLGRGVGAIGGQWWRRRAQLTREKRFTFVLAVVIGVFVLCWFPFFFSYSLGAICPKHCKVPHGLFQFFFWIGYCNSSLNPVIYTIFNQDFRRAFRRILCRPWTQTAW
Nature of the assay: Receptor binding, cloned human alpha 2b. The conditions noted are these: for Ki: Table 1, cloned human receptors, read-out: alpha adrenergic receptor subtype binding, 2b.
Excerpt: as §1, §2

In assay [3] the target is T3, human alpha 2c adrenergic receptor (Homo sapiens, UniProt P18825).
T3 construct: expressed in transfected cells; host or cells: cloned human receptor
T3 sequence (P18825 1-462): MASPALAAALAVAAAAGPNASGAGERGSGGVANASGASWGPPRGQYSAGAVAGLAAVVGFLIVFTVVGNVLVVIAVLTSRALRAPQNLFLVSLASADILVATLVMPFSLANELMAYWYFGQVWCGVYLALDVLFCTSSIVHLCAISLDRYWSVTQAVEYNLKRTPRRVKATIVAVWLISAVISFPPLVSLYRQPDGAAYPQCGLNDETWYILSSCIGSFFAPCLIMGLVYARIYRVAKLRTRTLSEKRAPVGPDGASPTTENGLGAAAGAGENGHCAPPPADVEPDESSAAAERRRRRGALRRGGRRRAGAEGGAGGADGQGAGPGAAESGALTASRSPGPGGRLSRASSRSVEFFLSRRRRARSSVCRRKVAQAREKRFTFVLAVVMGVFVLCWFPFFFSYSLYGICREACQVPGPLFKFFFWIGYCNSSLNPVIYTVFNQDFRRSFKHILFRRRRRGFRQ
In words: Receptor binding, cloned human alpha 2c. The conditions noted are these: for Ki: Table 1, cloned human receptors, read-out: alpha adrenergic receptor subtype binding, 2c.
Excerpt: as §1, §2

For assay [4], the target named is T4, human alpha 1a adrenergic receptor (Homo sapiens, UniProt P35348).
T4 construct: host or cells: stably transfected human alpha 1a cell line (ATCC CRL 11140)
T4 sequence (P35348 1-466): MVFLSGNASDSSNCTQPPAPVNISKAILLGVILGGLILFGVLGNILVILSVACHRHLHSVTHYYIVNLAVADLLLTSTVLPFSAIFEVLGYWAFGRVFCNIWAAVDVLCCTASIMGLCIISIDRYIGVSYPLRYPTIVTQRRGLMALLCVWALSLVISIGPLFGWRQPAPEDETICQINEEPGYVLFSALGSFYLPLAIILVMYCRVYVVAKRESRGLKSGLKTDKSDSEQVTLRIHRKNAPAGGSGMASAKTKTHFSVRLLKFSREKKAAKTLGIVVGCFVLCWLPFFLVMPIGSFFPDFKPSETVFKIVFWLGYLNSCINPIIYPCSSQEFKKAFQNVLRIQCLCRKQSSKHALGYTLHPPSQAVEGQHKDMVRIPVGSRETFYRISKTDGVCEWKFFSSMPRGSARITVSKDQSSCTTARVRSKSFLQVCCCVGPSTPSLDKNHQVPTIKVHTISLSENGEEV
Nature of the assay: Selective Binding assay, alpha 1a ([125I]-HEAT competition binding). The conditions noted are these: Table 1, cloned human receptors; read-out: alpha adrenergic receptor subtype binding, 1a. Here is the method:
(§3) These competition binding reactions (total volume=200 μl) contained 50 mM Tris-HCl pH 7.4, 5 mM EDTA, 150 mM NaCl, 100 pM [^125 I]-HEAT, membranes prepared from cell lines transfected with the respective alpha 1 subtype expression plasmid and increasing amounts of unlabeled ligand. Reactions were incubated at room temperature for one hour with shaking. Reactions were filtered onto Whatman GF/C glass fiber filters with a Inotec 96 well cell harvester. Filters were washed three times with ice cold buffer and bound radioactivity was determined (Ki).

The target in assay [5] is T5, human alpha 1b adrenergic receptor (Homo sapiens, UniProt P35368).
T5 construct: host or cells: stably transfected human alpha 1b cell line (ATCC CRL 11139)
T5 sequence (P35368 1-520): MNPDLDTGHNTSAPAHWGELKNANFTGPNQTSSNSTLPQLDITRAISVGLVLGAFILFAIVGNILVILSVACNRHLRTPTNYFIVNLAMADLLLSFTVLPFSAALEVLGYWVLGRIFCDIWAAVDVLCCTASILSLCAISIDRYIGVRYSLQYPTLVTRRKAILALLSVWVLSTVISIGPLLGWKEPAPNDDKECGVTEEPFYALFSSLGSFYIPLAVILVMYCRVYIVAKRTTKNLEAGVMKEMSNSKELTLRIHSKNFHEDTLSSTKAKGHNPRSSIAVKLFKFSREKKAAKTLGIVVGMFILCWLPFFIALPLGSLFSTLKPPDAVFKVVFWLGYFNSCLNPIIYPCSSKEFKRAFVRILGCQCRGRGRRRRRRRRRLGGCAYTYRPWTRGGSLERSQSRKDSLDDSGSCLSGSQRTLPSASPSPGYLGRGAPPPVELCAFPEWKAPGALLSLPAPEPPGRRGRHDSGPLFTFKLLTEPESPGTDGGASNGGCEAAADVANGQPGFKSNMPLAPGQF
Nature of the assay: Alpha 1b Adrenergic Receptor Binding ([125I]-HEAT competition binding). The conditions noted are these: Table 1, cloned human receptors; read-out: alpha adrenergic receptor subtype binding, 1b. Here is the method:
as §2
Screening assay: Alpha 1b Adrenergic Receptor Binding
as §3, with “Membranes prepared from the stably transfected human alpha 1b cell line (ATCC CRL 11139) were used to identify compounds that bind to the human alpha 1b adrenergic receptor. These” for “These”, “from the alpha 1b” for “from”, “line” for “lines transfected with the respective alpha 1 subtype expression plasmid”

Assay [6] addresses T6, human alpha 1d adrenergic receptor (Homo sapiens, UniProt P25100).
T6 construct: host or cells: stably transfected human alpha 1d cell line (ATCC CRL 11138)
T6 sequence (P25100 1-572): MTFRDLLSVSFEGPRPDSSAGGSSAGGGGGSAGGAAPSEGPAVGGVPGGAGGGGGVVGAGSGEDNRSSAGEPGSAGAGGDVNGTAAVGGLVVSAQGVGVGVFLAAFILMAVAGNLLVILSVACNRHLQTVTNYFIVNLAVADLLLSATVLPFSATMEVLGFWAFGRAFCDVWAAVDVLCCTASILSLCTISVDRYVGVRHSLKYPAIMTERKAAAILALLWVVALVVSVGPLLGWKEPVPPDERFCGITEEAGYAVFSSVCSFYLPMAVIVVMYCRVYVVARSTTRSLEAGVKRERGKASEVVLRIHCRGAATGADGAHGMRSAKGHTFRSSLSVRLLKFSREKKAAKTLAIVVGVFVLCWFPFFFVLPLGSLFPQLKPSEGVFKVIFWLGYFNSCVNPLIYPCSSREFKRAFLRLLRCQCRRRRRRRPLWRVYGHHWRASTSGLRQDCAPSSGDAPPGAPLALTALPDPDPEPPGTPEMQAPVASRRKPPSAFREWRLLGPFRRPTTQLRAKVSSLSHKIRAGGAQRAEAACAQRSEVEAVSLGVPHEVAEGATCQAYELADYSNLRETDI
Nature of the assay: Selective Binding assay, alpha 1d ([125I]-HEAT competition binding). The conditions noted are these: Table 1, cloned human receptors; read-out: alpha adrenergic receptor subtype binding, 1d. Here is the method:
as §3

SMILES strings stand for the structures.

As to `COc1cc2nc(N3CCN(C(=O)OCc4ccccc4)[C@H](C(=O)NC(C)(C)C)C3)nc(N)c2cc1OC` [Compound 2a, (S)-1-(4-Amino-6,7-dimethoxy-2-quinazolinyl)-4-[(benzyloxy)carbonyl]-3-(1,1-dimethylethylamino)carbonyl piperazine], the Ki was 683 nM in assay [1]; over 10000 nM in assay [2]; 715 nM in assay [3]; 463 nM in assay [4]; 1 nM in assay [5]; 29 nM in assay [6].
Regarding `COc1cc2nc(N3CCN[C@H](C(=O)NC(C)(C)C)C3)nc(N)c2cc1OC` [Compound 3a, (S)-1-(4-Amino-6,7-dimethoxy-2-quinazolinyl)-3-(1,1-dimethylethylamino)carbonyl piperazine], the Ki was 1170 nM in assay [1]; over 10000 nM in assay [2]; 736 nM in assay [3]; 1190 nM in assay [4]; 2.7 nM in assay [5]; 111 nM in assay [6].
For the compound `COc1cc2nc(N3CCN(C(=O)c4ccco4)[C@H](C(=O)NC(C)(C)C)C3)nc(N)c2cc1OC` [Compound 4a], the inhibition at 1 µM in assay [1] (read-out: alpha adrenergic receptor subtype binding, 2a, % @ 1 uM) was determined as 23%; in assay [2] (read-out: alpha adrenergic receptor subtype binding, 2b, % @ 1 uM), 16%; in assay [3] (read-out: alpha adrenergic receptor subtype binding, 2c, % @ 1 uM), 42%. The inhibition at 10 µM in assay [1] (read-out: alpha adrenergic receptor subtype binding, 2a, % @ 10 uM) amounted to 65%; in assay [2] (read-out: alpha adrenergic receptor subtype binding, 2b, % @ 10 uM), 23%; in assay [3] (read-out: alpha adrenergic receptor subtype binding, 2c, % @ 10 uM), 71%. In addition, the Ki in assay [4] is over 3670 nM; in assay [5], 3.4 nM; in assay [6] it was 97 nM.
